system: IL-5 production; test: In vitro inhibition of IL-5 production in human blood (phytohemagglutinin-stimulated whole blood, ELISA); type: cell-based; details: test dose 1×10^−6 M, 48 hours;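 further: values marked with an asterisk were tested at 10 µM and unmarked values at 1 µM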
In short: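 Percent inhibition of IL-5, quantified by ELISA in cell-free supernatants, is given at a single dose of 1×10^−6 M (or 1×10^−5 M). Threefold-diluted human whole blood from healthy men received compound for 60 min at 37° C before 48 h PHA stimulation at 2 μg/mL.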

Structure (SMILES) | % inh. (percentage inhibition of IL-5 production)
CS(=O)(=O)Nc1cccc(-c2nnc(C(c3ccc(Cl)cc3)c3c(Cl)cc(-n4ncc(=O)[nH]c4=O)cc3Cl)o2)c1 (racemic) [Compound 208] | 48%
O=c1cnn(-c2cc(Cl)c(C(c3ccc(Cl)cc3)c3nnc(-c4ccccc4[N+](=O)[O-])o3)c(Cl)c2)c(=O)[nH]1 (racemic) [Compound 210] | 79%
Nc1ccccc1-c1nnc(C(c2ccc(Cl)cc2)c2c(Cl)cc(-n3ncc(=O)[nH]c3=O)cc2Cl)o1 (racemic) [Compound 211] | 83%
O=C(CO)Nc1cccc(-c2nnc(C(c3ccc(Cl)cc3)c3c(Cl)cc(-n4ncc(=O)[nH]c4=O)cc3Cl)o2)c1 (racemic) [Compound 215] | 54%
Cc1c(NS(N)(=O)=O)cccc1-c1nnc(C(c2ccc(Cl)cc2)c2c(Cl)cc(-n3ncc(=O)[nH]c3=O)cc2Cl)o1 (racemic) [Compound 218] | 4%
CCOC(=O)C(=O)Nc1cccc(-c2nnc(C(c3ccc(Cl)cc3)c3c(Cl)cc(-n4ncc(=O)[nH]c4=O)cc3Cl)o2)c1.O (racemic) [Compound 219] | 8%
CCOC(=O)N1CCC(NC(=S)Nc2cccc(-c3nnc(C(c4ccc(Cl)cc4)c4c(Cl)cc(-n5ncc(=O)[nH]c5=O)cc4Cl)o3)c2)CC1 (racemic) [Compound 220] | 25%
NS(=O)(=O)Nc1cccc(-c2nnc(C(c3ccc(Cl)cc3)c3c(Cl)cc(-n4ncc(=O)[nH]c4=O)cc3Cl)o2)c1.O (racemic) [Compound 221] | −2%
Cl.O=c1cnn(-c2cc(Cl)c(C(c3ccc(Cl)cc3)c3nc(C4CCNCC4)cs3)c(Cl)c2)c(=O)[nH]1 (racemic) [Compound 230, (±)-2-[3,5-dichloro-4-[(4-chlorophenyl)[4-(4-piperidinyl)-2-thiazolyl]methyl]phenyl]-1,2,4-triazin-3,5-(2H,4H)-dione monohydrochloride] | 79%
CC(C)c1sc(C(c2ccc(Cl)cc2)c2c(Cl)cc(-n3ncc(=O)[nH]c3=O)cc2Cl)nc1-c1ccccc1 (racemic) [Compound 241, (±)-2-[3,5-dichloro-4-[(4-chlorophenyl)[5-(1-methylethyl)-4-phenyl-2-thiazolyl]methyl]-phenyl-1,2,4-triazin-3,5(2H,4H)-dione] | 95%
O=c1cnn(-c2cc(Cl)c(C(c3ccc(Cl)cc3)c3nc(-c4ccccc4)c(CNC(=S)Nc4ccccc4)s3)c(Cl)c2)c(=O)[nH]1 (racemic) [Compound 331, (±)-N-[[2-[(4-chlorophenyl)[2,6-dichloro-(4,5-dihydro-3,5-dioxo-1,2,4-triazin-2(3H)-yl)phenyl]methyl]4-phenyl-5-thiazolyl]methyl]-N′-phenyl-thiourea] | 95%
Cc1nc(SC(c2ccc(Cl)cc2)c2ccc(-n3ncc(=O)[nH]c3=O)cc2Cl)nc(O)c1CC1CC1 (racemic) [Compound 338] | −15%
CCOC(=O)c1cnc(SC(c2ccc(Cl)cc2)c2ccc(-n3ncc(=O)[nH]c3=O)cc2Cl)nc1O (racemic) [Compound 339] | 35%
O=c1cnn(-c2cc(Cl)c(C(Sc3ncccn3)c3ccc(Cl)cc3)c(Cl)c2)c(=O)[nH]1 (racemic) [Compound 340] | 88%
O=c1cnn(-c2cc(Cl)c(C(Sc3ncccn3)c3ccc(Cl)c(C(F)(F)F)c3)c(Cl)c2)c(=O)[nH]1 (racemic) [Compound 341] | 96%
O=c1cnn(-c2cc(Cl)c(C(Sc3nccc(-c4ccccc4)n3)c3ccc(Cl)c(C(F)(F)F)c3)c(Cl)c2)c(=O)[nH]1 (racemic) [Compound 342] | 93%
Nc1ccnc(SC(c2ccc(Cl)cc2)c2ccc(-n3ncc(=O)[nH]c3=O)cc2Cl)n1 (racemic) [Compound 343] | 66%
CS(=O)(=O)O.O.O.O=c1cnn(-c2cc(Cl)c(C(Sc3nccc(N4CCOCC4)n3)c3ccc(Cl)cc3)c(Cl)c2)c(=O)[nH]1 (racemic) [Compound 344] | 82%
CN1CCN(c2ccnc(SC(c3ccc(Cl)cc3)c3c(Cl)cc(-n4ncc(=O)[nH]c4=O)cc3Cl)n2)CC1 (racemic) [Compound 345] | 88%
Nc1ccnc(SC(c2ccc(Cl)cc2)c2c(Cl)cc(-n3ncc(=O)[nH]c3=O)cc2Cl)n1 (racemic) [Compound 348] | 83%

Structure (SMILES) | % inh. (percentage inhibition of IL-5 production)
O=c1cnn(-c2cc(Cl)c(C(Sc3nccc(N4CCOCC4)n3)c3ccc(Cl)cc3)c(Cl)c2)c(=O)[nH]1 (racemic) [Compound 349] | 87%
CCOC(=O)N1CCC(Nc2ccnc(SC(c3ccc(Cl)cc3)c3c(Cl)cc(-n4ncc(=O)[nH]c4=O)cc3Cl)n2)CC1 (racemic) [Compound 351] | 62%
CCOC(=O)N1CCN(c2ccnc(SC(c3ccc(Cl)cc3)c3c(Cl)cc(-n4ncc(=O)[nH]c4=O)cc3Cl)n2)CC1 (racemic) [Compound 352] | 85%
CN1CCC(Nc2ccnc(SC(c3ccc(Cl)cc3)c3c(Cl)cc(-n4ncc(=O)[nH]c4=O)cc3Cl)n2)CC1.Cl.O (racemic) [Compound 354] | 70%
CN(C)c1ccnc(SC(c2ccc(Cl)cc2)c2c(Cl)cc(-n3ncc(=O)[nH]c3=O)cc2Cl)n1 (racemic) [Compound 355] | 83%
O=c1cnn(-c2cc(Cl)c(C(Sc3nccc(N(CCO)CCO)n3)c3ccc(Cl)cc3)c(Cl)c2)c(=O)[nH]1 (racemic) [Compound 358] | 63%
O=c1cnn(-c2cc(Cl)c(C(Sc3nccc(NC(CO)CO)n3)c3ccc(Cl)cc3)c(Cl)c2)c(=O)[nH]1 (racemic) [Compound 361] | 28%
O=c1cnn(-c2cc(Cl)c(C(c3ccc(Cl)cc3)c3csc(-c4ccccc4)n3)c(Cl)c2)c(=O)[nH]1 (racemic) [Compound 363, (±)-2-[3,5-dichloro-4-[(4-chlorophenyl)(2-phenyl-4-thiazoyl)methyl]phenyl]-1,2,4-triazine-3,5(2H,4H)-dione] | 91%
O=c1cnn(-c2cc(Cl)c(C(c3ccc(Cl)cc3)c3csc(-c4ccccc4F)n3)c(Cl)c2)c(=O)[nH]1 (racemic) [Compound 364] | 95%
Cc1sc(-c2ccccc2)nc1C(c1ccc(Cl)cc1)c1c(Cl)cc(-n2ncc(=O)[nH]c2=O)cc1Cl (racemic) [Compound 365] | 88%
Cl.O.O=c1cnn(-c2cc(Cl)c(C(c3ccc(Cl)cc3)c3csc(-c4ccncc4)n3)c(Cl)c2)c(=O)[nH]1 (racemic) [Compound 366] | 93%
O=c1cnn(-c2cc(Cl)c(C(c3ccc(Cl)cc3)c3csc(-c4ccccc4Cl)n3)c(Cl)c2)c(=O)[nH]1 (racemic) [Compound 367] | 74%
O=c1cnn(-c2cc(Cl)c(C(c3ccc(Cl)cc3)c3csc(-c4cccc(F)c4)n3)c(Cl)c2)c(=O)[nH]1 (racemic) [Compound 368] | 88%
Cc1nc(C(c2ccc(Cl)cc2)c2ccc(-n3ncc(=O)[nH]c3=O)cc2Cl)c(-c2ccccc2)s1 (racemic) [Compound 369] | 66%
Cc1sc(-c2cccc(F)c2)nc1C(c1ccc(Cl)cc1)c1c(Cl)cc(-n2ncc(=O)[nH]c2=O)cc1Cl (racemic) [Compound 370] | 76%
O=c1cnn(-c2cc(Cl)c(C(c3ccc(Cl)cc3)c3csc(-c4cccc(Cl)c4)n3)c(Cl)c2)c(=O)[nH]1 (racemic) [Compound 371] | 88%
Cc1cccc(-c2nc(C(c3ccc(Cl)cc3)c3c(Cl)cc(-n4ncc(=O)[nH]c4=O)cc3Cl)cs2)c1 (racemic) [Compound 372] | 86%
O=c1cnn(-c2ccc(C(c3ccc(Cl)cc3)c3nc(-c4ccccc4)sc3-c3ccccc3)c(Cl)c2)c(=O)[nH]1 (racemic) [Compound 373] | 40%
Cc1ccccc1-c1nc(C(c2ccc(Cl)cc2)c2c(Cl)cc(-n3ncc(=O)[nH]c3=O)cc2Cl)cs1 (racemic) [Compound 374] | 94%
O=c1cnn(-c2cc(Cl)c(C(c3ccc(Cl)cc3)c3csc(-c4cccnc4)n3)c(Cl)c2)c(=O)[nH]1 (racemic) [Compound 375] | 91%

same assay, conditions: test dose 1×10^−6 M, 48 hours, read-out: % inh. (percentage inhibition of IL-5 production)

Structure (SMILES) | inhibition at 1 µM
O=c1cnn(-c2cc(Cl)c(C(Sc3nccc(NCCO)n3)c3ccc(Cl)cc3)c(Cl)c2)c(=O)[nH]1 (racemic) [Compound 357, (±)-2-[3,5-dichloro-4-[(4-chlorophenyl)[[4-[(2-hydroxyethyl)amino]-2-pyrimidinyl]-thio]methyl]phenyl]-1,2,4-triazine-3,5(2H,4H)-dione] | 69%
O=c1cnn(-c2cc(Cl)c(C(Sc3nccc(N4CCNCC4)n3)c3ccc(Cl)cc3)c(Cl)c2)c(=O)[nH]1 (racemic) [Compound 360, (±)-2-[3,5-dichloro-4-[(4-chlorophenyl)[[4-(1-piperazinyl)-2-pyrimidinyl]thio]methyl]phenyl]-1,2,4-triazine-3,5(2H,4H)-dione monohydrate] | 84%

From patent publication US6867207B2, “IL-5 inhibiting 6-azauracil derivatives” (Janssen Pharmaceutica N.V., priority 1997, dated 2005)
